This note sets out measurements from patent US20110071094A1, “(D)-ALLOSE INDUCING PROGRAMMED CELL DEATH IN HORMONE REFRACTORY PROSTATE CANCER LINES” (INDUSTRY-ACADEMIC COOPERATION FOUDATION, GYEONGSANG …, priority 2008, published 2011).

Assay type in all cases: cell-based, human
For data set [1], the system named is DU145 cell line. The data set is described as follows: Mitochondrial Δψm by JC-1, flow cytometry. Conditions: DU145, 20 and 40 mM, 24, 48 and 72 h. As to the method:
Mitochondrial Δψm was measured by JC-1 mitochondrial membrane potential detection kit (Biotium Inc, Hayward, Calif., USA) according to the manufacturer's protocol. Briefly, DU145 cell line (1×10^6 cells in triplicate culture plates) was harvested after treatments with 0, 20 and 40 mM of D-allose for up to 72 h as mentioned above, stained with […] JC-1 reagent at 37° C. for 15 min and resuspended twice in 1× assay buffer. Changes in mitochondrial Δψm were measured at the single cell level by FACSCalibur flow cytometer (Becton Dickinson, San Jose, Calif., USA) under the following conditions: FL1, 511 volts; FL2, 389 volts; FL1-10.5% FL2; FL2-25.9% FL1; 488 nm argon excitation laser and 585 nm band pass filter. In total 10,000 cells were acquired for analysis by CellQuest software, version 3.0 (Becton Dickinson, San Jose, Calif., USA), and the quantification of cells with low mitochondrial Δψm as the percentage of total cell population was performed. Further, the DU145 cell line was seeded onto chamber slides with 1×10^5 cells/chamber in 500 μl of complete culture medium containing 0, 20 and 40 mM of D-allose for 72 h, permeabilized with 0.1% Triton, stained with 1×JC-1 reagent in dark, mounted with Prolong Antifade reagent (Molecular Probes, Eugene, Oreg., USA), and images (JC-1, green) were acquired by use of a fluorescence microscope (Axioplan 2, Carl Zeiss, Germany).
On the technique in general: Flow cytometry measures light scatter and fluorescence of single cells or particles in a stream.

Data set [2] has as its system PrEC cell line. In words: Apoptotic indices by DAPI staining, confocal microscopy. Conditions: PrEC, 24, 48 and 72 h. As to the method: (§1) The Annexin-V-FLUOS Staining Kit (Roche Diagnostics GmbH, Mannheim, Germany) was used for the detection and quantification of the apoptotic cells. This kit uses a dual-staining protocol in which the apoptotic cells are stained with annexin-V (green fluorescence) and the necrotic cells are stained with propidium iodide (PI, red fluorescence). Briefly, DU145 cell line was grown at a density of 1×10^6 cells in triplicate culture plates and then treated with D-allose (0, 20 and 40 mM) for 48 and 72 h. The cells were treated with trypsin and harvested with PBS and processed for labeling with annexin-V and PI by the use of the kit according to the manufacturer's protocol. The fluorescence was measured by flow cytometric analysis, performed on a FACSCalibur (Becton Dickinson, San Jose, Calif., USA) using 488 nm excitation and a 515 nm band pass filter for fluorescein detection and a filter [600 nm for PI detection (FL1: Annexin-V-FLUOS; FL2: PI). Further, apoptotic indices were measured by analysis of fragmented or scattered nuclei and condensed chromosome as the stringent morphological criteria of apoptosis, detectable by confocal microscopy on cells stained with DNA-intercalating dye […] (DAPI). For this purpose, DU145 and PrEC cell lines were exposed to 0, 20 and 40 mM of D-allose for up to 72 h, stained with DAPI (1 μg/ml in methanol), mounted with Prolong Antifade reagent (Molecular Probes, Eugene, Oreg., USA), and images were acquired by use of a confocal laser scanning microscope (Fluoview FV 1000, Olympus, Japan). The numbers of apoptotic nuclei per 100 cells were counted from the five high power fields/slide and apoptotic indices were expressed as a percentage of the untreated controls in each cell line, considering the value as 100%. DU145 cell line was also treated with 0-40 mM of D-glucose for determination of apoptotic indices as mentioned above.

In data set [3] the test system is DU145 cell line. The data set is described as above. Particulars: DU145, 24, 48 and 72 h. As to the method:
as §1

Data set [4] has as its system Bax. In words: Western blot analysis of Bax protein in DU145. Conditions: DU145, 40 mM, 72 h. On the procedure: After 0, 20 and 40 mM of D-allose treatments for 72 h, DU145 cell line (1×10^6 cells in triplicate culture plates) was harvested into cell lysis buffer (Cell Signaling, Danvers, Mass., USA) supplemented with 1 mM PMSF. The cells were then sonicated, centrifuged and protein concentration was measured by Bradford assay with the Bio-Rad protein assay solution using bovine serum albumin (BSA) as standard. Proteins (30 μg) were separated on a 12.5% SDS-PAGE under reducing conditions and transferred onto a PVDF membrane (Santa Cruz Biotechnology, Santa Cruz, Calif., USA). Prestained protein marker, broad range: 6-175 kDa (New England Biolabs Inc., Ipswich, Mass., USA) run in parallel for detection of the molecular weights of the proteins. Membrane was blocked with 5% (w/v) skimmed milk in order to reduce non-specific binding and immunoblotting was performed using rabbit derived anti-Bcl-2, anti-Bax, anti-Caspase 3 and anti-PARP antibodies (1:500; Santa Cruz Biotechnology, Santa Cruz, Calif., USA). […] Membrane was probed with a goat derived horseradish peroxidase-conjugated anti-rabbit IgG (1:1000; Santa Cruz Biotechnology, Santa Cruz, Calif., USA), and proteins were detected by the enhanced chemiluminescence (ECL) detection system according to the vendor's protocol (Amersham Biosciences, Piscataway, N.J., USA) followed by X-ray exposure. […]

On to `O=C[C@H](O)[C@H](O)[C@H](O)[C@H](O)CO` [D-allose], for which the “cells with low mitochondrial Δψm” value in data set [1] was “appearance of a remarkable subpopulation of cells with low mitochondrial Δψm in a dose- and time-dependent manner”. In addition, the “programmed cell death (apoptotic indices, DAPI staining)” value was “very negligible effect” in data set [2]; “significant dose- and time-dependent programmed cell death” in data set [3]. In addition, the Bax protein expression entry in data set [4] is reported as “remarkably increased”.
